Entries after “also recorded” stand apart in the source; their conditions may differ. A value given as a limit tells only on which side of the number the result lay.

Data on one compound can be found in publication PMC2694132 (Cancer research, 2009).

One data set deals with T1, UGT1A7 (Homo sapiens, UniProt Q9HAW7).
T1 sequence (Q9HAW7 26-530): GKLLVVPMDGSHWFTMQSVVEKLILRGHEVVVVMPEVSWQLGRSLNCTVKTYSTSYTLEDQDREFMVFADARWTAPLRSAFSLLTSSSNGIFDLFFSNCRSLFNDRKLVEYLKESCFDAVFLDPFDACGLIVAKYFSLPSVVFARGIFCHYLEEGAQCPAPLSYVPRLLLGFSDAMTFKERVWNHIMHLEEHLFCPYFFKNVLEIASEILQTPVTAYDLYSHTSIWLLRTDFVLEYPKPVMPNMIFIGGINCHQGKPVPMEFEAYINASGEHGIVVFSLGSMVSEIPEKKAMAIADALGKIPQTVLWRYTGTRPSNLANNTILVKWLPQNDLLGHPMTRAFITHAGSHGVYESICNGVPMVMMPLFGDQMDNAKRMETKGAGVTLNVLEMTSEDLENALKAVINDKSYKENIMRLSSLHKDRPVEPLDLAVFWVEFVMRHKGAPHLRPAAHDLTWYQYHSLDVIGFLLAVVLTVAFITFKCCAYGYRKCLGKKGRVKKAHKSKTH
Kind of data set: SAHA glucuronidation, wild-type UGT1A7. It is filed as in vitro ADME.

In data set [1] the target is T2, UGT1A8*3 (UGT1A8p.Cys277Tyr) (Homo sapiens, UniProt Q9HAW9, C277Y).
T2 sequence (Q9HAW9 26-530 C277Y): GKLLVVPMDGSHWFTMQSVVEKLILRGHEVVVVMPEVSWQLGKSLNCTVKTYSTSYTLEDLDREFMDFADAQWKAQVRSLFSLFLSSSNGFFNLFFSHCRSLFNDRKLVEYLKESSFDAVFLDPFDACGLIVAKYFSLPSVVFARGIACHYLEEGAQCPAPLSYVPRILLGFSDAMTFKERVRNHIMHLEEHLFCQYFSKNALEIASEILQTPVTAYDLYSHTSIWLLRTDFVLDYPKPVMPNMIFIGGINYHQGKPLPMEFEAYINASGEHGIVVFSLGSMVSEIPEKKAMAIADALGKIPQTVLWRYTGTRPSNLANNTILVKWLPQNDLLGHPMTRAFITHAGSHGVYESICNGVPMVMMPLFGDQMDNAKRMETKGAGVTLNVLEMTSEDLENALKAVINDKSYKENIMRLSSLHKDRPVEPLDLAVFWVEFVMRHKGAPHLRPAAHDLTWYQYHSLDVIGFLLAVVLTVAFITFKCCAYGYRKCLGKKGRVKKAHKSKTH
Kind of data set: Glucuronidation, UGT1A8*3 variant cell homogenate. It is filed as in vitro ADME. As to conditions: using up to 8 mmol/L SAHA.

The target in a further data set is T3, UGT1A1 (Homo sapiens, UniProt P22309).
T3 sequence (P22309 26-533): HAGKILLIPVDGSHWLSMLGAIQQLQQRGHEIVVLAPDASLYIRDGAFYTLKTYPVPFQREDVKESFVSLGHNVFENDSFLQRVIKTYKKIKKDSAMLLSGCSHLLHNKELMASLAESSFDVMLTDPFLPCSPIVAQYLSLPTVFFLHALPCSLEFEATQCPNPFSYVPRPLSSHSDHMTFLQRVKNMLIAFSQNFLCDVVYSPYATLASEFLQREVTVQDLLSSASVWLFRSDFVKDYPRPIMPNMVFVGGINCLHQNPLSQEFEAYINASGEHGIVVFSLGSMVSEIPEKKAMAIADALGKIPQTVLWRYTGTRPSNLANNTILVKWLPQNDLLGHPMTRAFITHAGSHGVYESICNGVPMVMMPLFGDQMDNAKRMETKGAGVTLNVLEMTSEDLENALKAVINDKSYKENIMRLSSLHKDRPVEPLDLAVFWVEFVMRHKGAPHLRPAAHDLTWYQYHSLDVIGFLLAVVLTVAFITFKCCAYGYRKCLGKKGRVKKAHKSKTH
The experiment in a line: SAHA glucuronidation screen, UGT1A1-overexpressing cell homogenate. The class given is in vitro ADME.

A further data set has as its target T4, UGT1A6 (Homo sapiens, UniProt P19224).
T4 sequence (P19224 27-532): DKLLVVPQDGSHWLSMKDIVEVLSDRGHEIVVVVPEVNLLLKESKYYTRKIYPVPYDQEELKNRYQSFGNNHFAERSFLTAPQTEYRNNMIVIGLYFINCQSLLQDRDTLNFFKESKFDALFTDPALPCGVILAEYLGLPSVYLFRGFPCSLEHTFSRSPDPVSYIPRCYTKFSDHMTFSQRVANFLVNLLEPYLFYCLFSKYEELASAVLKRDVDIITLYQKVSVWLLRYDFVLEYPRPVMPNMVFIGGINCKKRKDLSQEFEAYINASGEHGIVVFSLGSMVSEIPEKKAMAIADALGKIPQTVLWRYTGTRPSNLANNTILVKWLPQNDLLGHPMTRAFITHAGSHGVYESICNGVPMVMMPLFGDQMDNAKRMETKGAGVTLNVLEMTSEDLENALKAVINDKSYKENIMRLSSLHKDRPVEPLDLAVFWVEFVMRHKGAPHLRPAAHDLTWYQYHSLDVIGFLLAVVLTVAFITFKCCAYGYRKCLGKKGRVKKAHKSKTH
The experiment in a line: SAHA glucuronidation screen, UGT1A6-overexpressing cell homogenate. The class given is in vitro ADME.

Another data set concerns the target T5, UGT2B4 (Homo sapiens, UniProt P06133).
T5 sequence (P06133 24-528): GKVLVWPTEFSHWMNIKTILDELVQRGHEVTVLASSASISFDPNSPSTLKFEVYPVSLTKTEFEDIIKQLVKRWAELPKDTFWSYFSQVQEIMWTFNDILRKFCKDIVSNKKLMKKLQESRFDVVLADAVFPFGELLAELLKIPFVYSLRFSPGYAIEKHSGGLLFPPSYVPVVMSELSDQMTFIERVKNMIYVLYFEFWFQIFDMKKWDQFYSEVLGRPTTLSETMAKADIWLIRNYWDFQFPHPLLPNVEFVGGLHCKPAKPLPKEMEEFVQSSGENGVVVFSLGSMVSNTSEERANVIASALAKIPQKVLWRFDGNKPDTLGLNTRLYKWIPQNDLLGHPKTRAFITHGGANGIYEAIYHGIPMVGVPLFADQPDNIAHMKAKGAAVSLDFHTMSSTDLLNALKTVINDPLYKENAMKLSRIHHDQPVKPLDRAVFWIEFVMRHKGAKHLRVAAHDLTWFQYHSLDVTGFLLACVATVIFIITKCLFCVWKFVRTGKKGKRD
The experiment in a line: SAHA glucuronidation screen, UGT2B4-overexpressing cell homogenate. It is filed as in vitro ADME. The note with it: 400 μg UGT-overexpressing cell homogenate, 1-h incubation.

[2] abbreviates: 400 μg UGT-overexpressing cell homogenate, 1-h incubation.

Regarding `O=C(CCCCCCC(=O)Nc1ccccc1)NO` [SAHA, Suberoylanilide hydroxamic acid], at UGT1A7 (setting [2]), the “glucuronidation against SAHA (screen)” value was “high levels of glucuronidation”. Moreover, the Km at 1 h is 2.7 ± 0.6 mM on UGT1A7 (human, pH 7.5); above 8 mM at UGT1A1 (human, UGT1A1-overexpressing cell homogenate, pH 7.5); above 8 mM at UGT1A6 (human, UGT1A6-overexpressing cell homogenate, pH 7.5). In addition, the “glucuronidation activity against SAHA” value in data set [1] is “no detectable glucuronidation activity; also recorded: inactive”. In addition, the “glucuronidation against SAHA” value is reported as “detectable levels of glucuronidation” at UGT1A1 (in vitro, UGT-overexpressing cell homogenate) and “detectable levels of glucuronidation” at UGT1A6 (setting [2]). On UGT2B4, the “glucuronidation activity against SAHA (screen)” value is given as “No detectable glucuronidation activity”. For the same compound, the “SAHA-glucuronide formation, HLM with one versus two intact UGT2B17 alleles” value (200 μmol/L SAHA) is given as “No difference”. Besides, the “decrease in SAHA-glucuronide formation, UGT2B17 (*2/*2) HLM versus HLM with intact UGT2B17” value (200 μmol/L SAHA, 20 μg HLM protein, 100 subjects) was 45%. Moreover, the “increase in KM, UGT2B17 (*2/*2) HLM versus UGT2B17 (*1/*1) HLM” value (13 HLM per genotype, 65 to 8,000 μmol/L SAHA) is given as 75%. For the same compound, the “change in Vmax between UGT2B17 genotype subgroups” value (HLM (*1/*1) versus (*2/*2)) is “No change”. In addition, the “share of hepatic SAHA glucuronidation from UGT2B17” value (from UGT2B17-deleted versus wild-type HLM) is ~ 45%.
